Consider two compounds from patent US12083168B2, “Treatment and detection of inherited neuropathies and associated disorders” (University of Miami, priority 2019, dated 2024).

The test system of data set [1] is patient fibroblasts lacking functional SORD. As to the kind of experiment: Intracellular sorbitol level in patient fibroblasts (UPLC-MS/MS, normalised to protein content). It counts as cell-based, human. Conditions: 72 hrs, Epalrestat 100 μM, Ranirestat 10 μM, vs DMSO.
Procedure: Asynchronous cell cultures were grown to approximately 80% confluency and treated with epalrestat (100 μM), ranirestat (10 μM) or DMSO for 72 hours. Media containing the drugs or DMSO were changed every 24 hours.
Sorbitol determination in human fibroblast lysates was performed in ultra-performance liquid chromatography-tandem mass spectrometry (UPLC-MS/MS) (Waters Acquity UPLC & TQD mass spectrometer—Waters, Milford, MA, USA). […] Lysate samples underwent protein precipitation with Acetonitrile (1:5), ten-time dilution with Acetonitrile-water (50/50) and clean up on Oasis HLB cartridges (10 mg/1 ml), before injection in UPLC (3 μL). UPLC conditions: column, BEH Amide 1.7 μm (2.1×100 mm) at 88° C., eluent A, Acetonitrile 90%-water 5%-Isopropanol 5%, eluent B, Acetonitrile 80%-water 20%, gradient elution 0 min., 100% A, 3.6 min. 100% B, flow rate, 0.45 ml/min. The retention time of sorbitol was 2.7 min.
The effect of two commercially available aldose reductase inhibitors (ARI), Epalrestat and Ranirestat, were tested on intracellular sorbitol accumulation in patient fibroblasts lacking functional SORD. Patient and control fibroblasts were grown for 72 hrs in the presence or absence of Epalrestat (100 μM) or Ranirestat (10 μM) and intracellular sorbitol levels were measured thereafter.
For data set [2], the system named is Sodh2MB01265/MB01265 flies. As to the kind of experiment: Locomotor activity (negative geotaxis assay), Sodh2 mutant flies. Format: in vivo, Drosophila melanogaster. Conditions: 80 μM in food, vs yw control flies. As to the method:
[…] Equal amount of DMSO was mixed into the fly food as control. The vials were dried at room temperature for 12 h before feeding.
For lifespan assay, 100 newly enclosed female flies of each group were collected and placed in vials of 20 individuals. Flies were transferred into new vials every 2 days and the number of dead flies was counted. Survival data was plotted using Kaplan-Meier plot and compared between groups using log-rank test. For negative geotaxis behavior assay, 10 age-matched female flies were placed in a vial marked with a black line drawn horizontally 8 cm above the bottom. Flies were given 60 min to fully recover from CO2 anesthesia, and were gently tapped onto the bottom and given 10 s to climb. Flies that crossed the 8 cm line were counted. For each vial, this assay was repeated 10 times, and 10 independent vials of each group (a total 100 flies per group) were tested. To minimize observer-expectancy bias, this assay was performed with the examiner masked to the group assignment.

Data set [3] relates to Sodh2MB01265/MB01265 mutant flies. Put plainly: Age-dependent synaptic degeneration in the lamina (vacuoles, BRP immunostaining, confocal microscopy). It counts as in vivo, Drosophila melanogaster. As to the method: FIGS. 4A-G. Treatment with aldose reductase inhibitors Epalrestat and Ranirestat decrease sorbitol level and restore function. (FIG. 4A) Intracellular sorbitol level as measured by UPLC and normalised to protein content in fibroblasts from healthy controls (n=5, circle dots) and patients carrying biallelic nonsense mutations in SORD (n=5, square dots) after three days of treatment with Epalrestat 100 μM, Ranirestat 10 μM or DMSO. (FIG. 4B) Sorbitol level as measured by UPLC from brain/head homogenates and normalised to protein concentration from wild-type (yw, empty circle dots), Sodh2^MB01265/MB01265 (full circle dots) and neuron-specific knock-down of Sodh1 and […] (square dots) Drosophilae at 10 days after eggs enclosure. Sodh2 Mimic and Sodh1 and Soh2 RNAi Drosophilae were fed with either 80 μM Epalrestat, 80 μM Ranirestat or DMSO. The graphs show the mean±s.d. A two-tailed t-test was performed to compare sorbitol level. Statistical significance is indicated as *, ** or *** if P-value <0.05, <0.01 or <0.001, respectively, unless otherwise specified. All experiments were repeated independently twice with similar results. (FIG. 4C) Locomotor activity of control flies (yw) feeding with DMSO, Sodh2^MB01265/MB01265 flies feeding with DMSO, 80 μM Epalrestat, or 80 μM Ranirestat (n=10 in each group). Data are presented as mean±s.d. Statistical analysis was performed using Two-Way ANOVA followed by post-hoc Tukey's multiple comparison test. *P<0.05, ***P<0.001 (FIGS. 4D-4F) Laminae of Sodh2^MB01265/MB01265 homozygous flies at 10 DAE and 40 DAE fed with DMSO (FIG. 4D), 80 μM Epalrestat (FIG. 4E), or 80 μM Ranirestat (FIG. 4F). Arrowheads indicate the lamina vacuoles. Boxes indicate higher magnification areas of the lamina. The intensity of BRP is indicated. […] (FIG. 4G) Quantification of the vacuole number, size, and BRP intensity of (FIGS. 4D-4F). n=3. […]
Brain dissection and staining were carried out as previously described (Brazill et al., J Vis Exp. 2018; (138)). […] Images were processed and analyzed using FluoView 10-ASW (Olympus).

For data set [4], the system named is flies with neuronal specific knockdown of both Sodh1 and Sodh2. As to the kind of experiment: Locomotor activity (negative geotaxis assay), Sodh1 and Sodh2 double knockdown flies. Format: in vivo, Drosophila melanogaster. Conditions: neuronal specific knockdown of Sodh1 and Sodh2, 80 μM in food, vs yw control flies. As to the method:
FIG. 7. Treatment with aldose reductase inhibitors Epalrestat and Ranirestat restore locomotor function in Sodh1 and Sodh2 double knockdown flies. Locomotor activity of control flies (yw) feeding with DMSO (dots, first data point from the left for each DAE point indicated), or flies with neuronal specific knockdown of Sodh1 and Sodh2 feeding with DMSO (squares, second data point from the left for each DAE point indicated), 80 μM Epalrestat (squares, third data point from the left for each DAE point indicated), or 80 μM Ranirestat (squares, forth data point from the left for each DAE point indicated). n=10 in each group. Data are presented as mean±s.d. Statistical analysis was performed using Two-Way ANOVA followed by post-hoc Tukey's multiple comparison test. ***P<0.001, ****P<0.0001. […] Equal amount of DMSO was mixed into the fly food as control. The vials were dried at room temperature for 12 h before feeding. For lifespan assay, 100 newly enclosed female flies of each group were collected and placed in vials of 20 individuals. Flies were transferred into new vials every 2 days and the number of dead flies was counted. Survival data was plotted using Kaplan-Meier plot and compared between groups using log-rank test. […] Flies that crossed the 8 cm line were counted. […]

In data set [5] the test system is Sodh2MB01265/MB01265 Drosophila. Put plainly: Sorbitol level in fly brain/head homogenates (UPLC). It counts as in vivo, Drosophila melanogaster. The note with it: Sodh2MB01265/MB01265 flies at 10 DAE; fed from 2 DAE, 80 μM / 80 μg/ml in food.
Procedure: (FIG. 4B) Sorbitol level as measured by UPLC from brain/head homogenates and normalised to protein concentration from wild-type (yw, empty circle dots), Sodh2^MB01265/MB01265 (full circle dots) and neuron-specific knock-down of Sodh1 and Sodh1 by RNAi (square dots) Drosophilae at 10 days after eggs enclosure. Sodh2 Mimic and Sodh1 and Soh2 RNAi Drosophilae were fed with either 80 μM Epalrestat, 80 μM Ranirestat or DMSO. The graphs show the mean±s.d. A two-tailed t-test was performed to compare sorbitol level. Statistical significance is indicated as *, ** or *** if P-value <0.05, <0.01 or <0.001, respectively, unless otherwise specified.
Lysate samples underwent protein precipitation with Acetonitrile (1:5), ten-time dilution with Acetonitrile-water (50/50) and clean up on Oasis HLB cartridges (10 mg/1 ml), before injection in UPLC (3 μL). UPLC conditions: column, BEH Amide 1.7 μm (2.1×100 mm) at 88° C., eluent A, Acetonitrile 90%-water 5%-Isopropanol 5%, eluent B, Acetonitrile 80%-water 20%, gradient elution 0 min., 100% A, 3.6 min. 100% B, flow rate, 0.45 ml/min. The retention time of sorbitol was 2.7 min. MS/MS conditions: interface, Electrospray interface in negative ion mode, Multiple Reaction Monitoring acquisition, m/z 180.9→88.9 (CV 24, CE 15).
Unless specified, all flies were kept on cornmeal-molasses-yeast medium at 25° C., 65% humidity, with 12 h light/12 h dark cycles. […]
The test system of data set [6] is aldose reductase (AR) (AKR1B1 gene). As to the kind of experiment: Knock-down of aldose reductase by antisense oligonucleotide, Western blot normalized to β-tubulin. The note with it: SORD patient fibroblast and control fibroblasts; scrambled ASO (AR-S 1A) as control. It counts as cell-based, Homo sapiens. As to the method:
FIGS. 15A-15D. […] This was carried out in a SORD patient fibroblast and control fibroblasts and normalized to β-tubulin and measured via Western blot (FIGS. 15C-15D).
Fibroblasts were lysed in RIPA buffer (ThermoFisher) containing protease inhibitor (Roche) and sonicated for 5 minutes with the Bioruptor sonication device (Diagenode). Cell lysates were centrifuged at 13,000×g for 10 minutes at 4° C., and the supernatant was collected for protein quantification (Pierce BCA Protein Assay Kit). 30 μg of protein sample was mixed with Bolt LDS Sample Buffer and Sample Reducing Agent (ThermoFisher) and heated at 90° C. for 5 min. Samples were loaded on Bolt 4-12% Bis-Tris Plus mini-gel followed by transfer into a nitrocellulose membrane (Bio-Rad). Membrane was blocked with 5% non-fat milk and incubated with anti-SORD (ab189248, Abcam) antibody for 2 hours, washed with TBS containing 0.01% Tween 20 (Bio-Rad) and incubated with a secondary anti-rabbit antibody (Cell Signaling). Membrane was subsequently incubated with GAPDH primary antibody (Santa Cruz) and secondary anti-mouse antibody (Cell Signaling). Chemoluminescence detection was performed with the SuperSignal West Pico PLUS Chemiluminescent Substrate and imaged with the FluorChem E (ProteinSimple).
For orientation: A western blot detects proteins with antibodies after separation by electrophoresis.

The mark [7] stands for this setting: Sodh2MB01265/MB01265 flies, at both 10 and 40 DAE, 80 μM in food.

As to `O=C1C[C@@]2(C(=O)N1)C(=O)N(Cc1ccc(Br)cc1F)C(=O)c1cccn12` [Ranirestat], in data set [1], the intracellular sorbitol level result is recorded as “significant reduction of sorbitol to a level comparable to controls”. Further, the locomotor activity entry in data set [2] was “rescued to the levels of yw control flies”. Also, in data set [3] (setting [7]), the “localization of synaptic cytomatrix protein BRP” value was “restored the localization of synaptic cytomatrix protein BRP” and the “number of lamina vacuoles” value is “reduced the number of vacuoles”. Besides, in data set [3] (Sodh2MB01265/MB01265 mutant flies, drug feeding), the age-dependent synaptic defects entry is given as “restored the age-dependent synaptic defects”. Also, in data set [4], the locomotor activity entry was “rescued to the levels of yw control flies”. Besides, the “sorbitol level in fly heads” value in data set [5] is given as “significant reduction of sorbitol level”.
“AR 1A: antisense oligonucleotide (ASO) targeting aldose reductase (AKR1B1), SEQ ID NO: 22, GTTTAAGATCATCTCCACCT, modified backbone (modified backbone, type not given here)”: the “aldose reductase protein level (knock-down)” value in data set [6] is listed as “Significant knock-down”.
